Experimental data: patent US10676514B2, “CDCA1-derived peptide and vaccine containing same” (ONCOTHERAPY SCIENCE, INC., priority 2014, dated 2020)
Entries after “also recorded” stand apart in the source; their conditions may differ.

What was measured:
Assay type in all cases: cell-based, human
peptide-pulsed C1R-A03 [1] = test: IFN-gamma ELISA of CTL lines and CTL clones (HLA-A*0301)
Procedure: CTLs were propagated in culture using methods similar to those disclosed by Riddell et al. (Walter E A et al., N Engl J Med 1995, 333(16): 1038-44; Riddell S R et al., Nat Med 1996, 2(2): 216-23). The CTLs were co-cultured in a total of 25 ml AIM-V medium containing 5% AS (AIM-V/5% AS) and 40 ng/ml anti-CD3 antibody with two types of Mitomycin C-treated human B lymphoblastoid cell lines at 5×10^6 cells/flask. One day after beginning of the culturing, 120 IU/ml IL-2 was added to the culture. On days 5, 8 and 11, a fresh AIM-V/5% AS medium containing 30 IU/ml IL-2 was added to the culture (Tanaka H et al., Br J Cancer 2001, 84(1): 94-9; Umano Y et al., Br J Cancer 2001, 84(8): 1052-7; Uchida N et al., Clin Cancer Res 2004, 10(24): 8577-86; Suda T et al., Cancer Sci 2006, 97(5): 411-9; Watanabe T et al., Cancer Sci 2005, 96(8): 498-506).
Dilution of CTLs was carried out to make 0.3, 1 and 3 cells/well in 96 round-bottomed microtiter plates (Nalge Nunc International). The CTLs were co-cultured with two types of Mitomycin C-treated human B lymphoblastoid cell lines at 1×10^4 cells/well in a total of 150 micro-l/well AIM-V/5% AS medium with 30 ng/ml anti-CD3 antibody and 125 IU/ml IL-2. Ten days later, IL-2 was added to the medium at 50 micro-l/well to reach a final concentration of 125 IU/ml. On day 14, the CTL activity was tested, and the CTL clones were propagated using the same method as described above (Uchida N et al., Clin Cancer Res 2004, 10(24): 8577-86; Suda T et al., Cancer Sci 2006, 97(5): 411-9; Watanabe T et al., Cancer Sci 2005, 96(8): 498-506).
(§1) Specifically, peptide-pulsed C1R-A03 (1×10^4 cells/well) was prepared as the stimulator cell. The induced CTLs, i.e., CTL lines and CTL clones, were used as the responder cell. The IFN-gamma ELISPOT assay and IFN-gamma ELISA were performed according to the manufacturer's manual.

peptide-pulsed C1R-A03 [2] = test: IFN-gamma ELISPOT assay of peptide-induced CTLs (HLA-A*0301); settings: CTLs induced from HLA-A*0301-positive donors, peptide-pulsed C1R-A03 vs control
Source text: (§2) Monocyte-derived dendritic cells (DCs) were used as the antigen-presenting cell to induce a cytotoxic T lymphocyte (CTL) response against peptides presented on human leukocyte antigens (HLAs). As described in the other sections, DCs were generated in vitro (Nakahara S et al., Cancer Res 2003, 63(14): 4112-8). Specifically, peripheral-blood mononuclear cells isolated from healthy volunteers (HLA-A*0301-positive) with the Ficoll-Paque plus solution (Pharmacia) were separated by attaching to plastic tissue culture dishes (Becton Dickinson) and concentrated as a monocyte fraction. The monocyte-concentrated population was cultured in the presence of 1000 IU/ml granulocyte macrophage colony-stimulating factor (R&D System) and 1000 IU/ml interleukin(IL)-4 (R&D System) in an AIM-V medium (Invitrogen) containing 2% heat-inactivated autologous serum (AS). After seven days of culturing, the cytokine-induced DCs were pulsed with 20 micro-g/ml each of the synthesized peptides in an AIM-V medium at 37 degrees C. for three hours in the presence of 3 micro-g/ml beta 2-microglobulin. The generated cells appeared to express on their cell surface DC-associated molecules such as CD80, CD83, CD86 and HLA class II (data not shown). Next, these peptide-pulsed DCs were inactivated by X-ray irradiation (20 Gy), and mixed in a 1:20 ratio with autologous CD8^+ T cells obtained by positive selection using the CD8 Positive Isolation Kit (Dynal). These culture products were seeded in a 48-well plate (Corning). Each well was made to contain 1.5×10^4 peptide-pulsed DCs, 3×10^5 CD8^+ T cells and 10 ng/ml IL-7 (R&D System) in 0.5 ml of the AIM-V/2% AS medium. Three days later, these culture products were added with a final concentration of 20 IU/ml IL-2 (CHIRON). On day 7 and day 14, T cells were further stimulated with peptide-pulsed autologous DCs. The DCs were prepared every time by the same method as above. On day 21, after the third peptide stimulation, CTLs were examined against the peptide-pulsed C1R-A03 by a human interferon (IFN)-gamma enzyme-linked immunospot (ELISPOT) assay (Tanaka H et al., Br J Cancer 2001, 84(1): 94-9; Umano Y et al., Br J Cancer 2001, 84(8): 1052-7; Uchida N et al., Clin Cancer Res 2004, 10(24): 8577-86; Suda T et al., Cancer Sci 2006, 97(5): 411-9; Watanabe T et al., Cancer Sci 2005, 96(8): 498-506).
as §1

[3] = tested on: peptide-pulsed C1R-A11 cells; test: IFN-gamma ELISPOT assay of peptide-induced CTLs (HLA-A*1101); settings: CTLs induced from HLA-A*1101-positive donors, peptide-pulsed C1R-A11 vs control, listed as CDCA1-A11-9-343
Source text: as §2, with “(HLA-A*1101-positive)” for “(HLA-A*0301-positive)”, “C1R-A11 cells” for “C1R-A03”
Specifically, peptide-pulsed C1R-A11 (1×10^4 cells/well) was prepared as the stimulator cell. The induced CTLs, i.e., CTL lines and CTL clones, were used as the responder cell. The IFN-gamma ELISPOT assay and IFN-gamma ELISA were performed according to the manufacturer's manual.

Row | Sequence | IFN-gamma production of CTL clones (peptide-pulsed C1R-A03 [1]; CTL clones by limiting dilution, peptide-pulsed C1R-A03, listed as CDCA1-A03-10-257) | IFN-gamma production of CTL lines (peptide-pulsed C1R-A03 [1]; CTL lines, peptide-pulsed vs non-pulsed target cells, HLA-A*0301) | peptide-specific CTL activity (IFN-gamma production) (peptide-pulsed C1R-A03 [2]; listed as CDCA1-A03-10-257) | peptide-specific CTL activity (IFN-gamma production) (peptide-pulsed C1R-A03 [2]; listed as CDCA1-A03-9-343) | peptide-specific CTL activity (IFN-gamma production) [3]
1 | KMKDTVQKLK (a peptide derived from CDCA1) [SEQ ID NO: 47] | Potent IFN-gamma production | potent IFN-gamma production | potent IFN-gamma production; also recorded: significant specific CTL activity |  | 
2 | RLMIVKKEK (a peptide derived from CDCA1) [SEQ ID NO: 10] |  |  |  | no specific IFN-gamma production; also recorded: specific IFN-gamma production was not observed | potent IFN-gamma production; also recorded: significant specific CTL activity
